Toxic doses and inconclusive results are not listed. No stated cut-off is given here; in the data, active means T/C of 150% or more; inactive means T/C below 125%. Square brackets hold non-standard residues; d marks the D form. Peptide text beside a SMILES is read from it. * marks the point of attachment. ξ: configuration not given here. ξF = NC(Cc1ccccc1)C(=O)O; Cbz = O=C(OCc1ccccc1)*
System: L1210 leukemia ip in BDF1 mice, survival T/C
Assay: NCI In Vivo Anticancer Drug Screen. Data for tumor model L1210 Leukemia (intraperitoneal) in B6D2F1 (BDF1) mice
Conditions: endpoint: mean survival time, higher = longer survival
How it was run: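 Value reflects the ratio of survival in compound-treated mice to survival in vehicle-treated controls, with both groups carrying the same transplanted tumor.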

[1] = dose: 100.0 mg/kg/injection, schedule: Q01DX009 (ip), vehicle: saline with Tween-80
[2] = dose: 100.0 mg/kg/injection, schedule: Q04DX003 (ip), vehicle: saline with Tween-80
[3] = dose: 200.0 mg/kg/injection, schedule: Q04DX003 (ip), vehicle: saline with Tween-80
[4] = dose: 400.0 mg/kg/injection, schedule: Q04DX003 (ip), vehicle: saline with Tween-80
[5] = dose: 100.0 mg/kg/injection, schedule: Q04DX003 (ip), vehicle: saline
[6] = dose: 200.0 mg/kg/injection, schedule: Q04DX003 (ip), vehicle: saline
[7] = dose: 400.0 mg/kg/injection, schedule: Q04DX003 (ip), vehicle: saline
[8] = dose: 100.0 mg/kg/injection, schedule: Q01DX009 (ip), vehicle: Klucel (hydroxypropylcellulose) (HPC)
[9] = dose: 100.0 mg/kg/injection, schedule: Q04DX003 (ip), vehicle: Klucel (hydroxypropylcellulose) (HPC)
[10] = dose: 200.0 mg/kg/injection, schedule: Q01DX009 (ip), vehicle: Klucel (hydroxypropylcellulose) (HPC)
[11] = dose: 200.0 mg/kg/injection, schedule: Q04DX003 (ip), vehicle: Klucel (hydroxypropylcellulose) (HPC)
[12] = dose: 400.0 mg/kg/injection, schedule: Q04DX003 (ip), vehicle: Klucel (hydroxypropylcellulose) (HPC)
[13] = dose: 100.0 mg/kg/injection, schedule: Q01DX009 (ip), vehicle: saline
[14] = dose: 400.0 mg/kg/injection, schedule: Q01DX009 (ip), vehicle: saline
[15] = dose: 100.0 mg/kg/injection, schedule: Q01DX001 (ip), vehicle: Klucel (hydroxypropylcellulose) (HPC)

Measured: T/C

CCOC(=O)n1ccn2cncc2c1=O
inactive: [1] 86 % of control | [2] 95 % of control | [3] 101 % of control | [4] 95 % of control

C[C@]12CCC(=O)C=C1CC[C@@H]1[C@@H]2[C@@H](O)C[C@@]2(C)[C@H]1CC[C@]2(O)C(=O)COC(=O)CCC1CCCC1
inactive: dose: 50.0 mg/kg/injection, schedule: Q04DX003 (sc), vehicle: steriod suspending solution 100 % of control | dose: 100.0 mg/kg/injection, schedule: Q04DX003 (sc), vehicle: steriod suspending solution 96 % of control | dose: 200.0 mg/kg/injection, schedule: Q04DX003 (sc), vehicle: steriod suspending solution 97 % of control | dose: 400.0 mg/kg/injection, schedule: Q04DX003 (sc), vehicle: steriod suspending solution 96 % of control

CC1(c2ccccc2)CCc2ccccc21 (configuration not stated)
inactive: [2] 100 % of control | [3] 98 % of control | [4] 98 % of control

COc1cc(OCc2ccccc2)c([N+](=O)[O-])cc1OC
inactive: [5] 116 % of control | [6] 124 % of control | [7] 112 % of control

O=S(=O)(C/C(=N\O)c1ccccc1)C/C(=N/O)c1ccccc1
inactive: [5] 104 % of control | [6] 98 % of control | [7] 100 % of control

CCCCCC#CC(=O)O
inactive: [8] 105 % of control | [9] 98 % of control | [10] 106 % of control | [11] 98 % of control | dose: 400.0 mg/kg/injection, schedule: Q01DX009 (ip), vehicle: Klucel (hydroxypropylcellulose) (HPC) 90 % of control | [12] 109 % of control

CCOC(=O)c1cc(OC(C)=O)c2c(ccc3cc(OC)ccc32)c1CC
inactive: [13] 91 % of control | [5] 93 % of control | [6] 96 % of control | [14] 91 % of control | [7] 91 % of control

S=c1cccc[nH]1.[Pb]
inactive: dose: 100.0 mg/kg/injection, schedule: Q04DX002 (ip), vehicle: gum acacia 103 % of control | dose: 200.0 mg/kg/injection, schedule: Q04DX002 (ip), vehicle: gum acacia 100 % of control

CC(=O)[C@@]1(O)CC[C@H]2[C@@H]3CCC4=CC(=O)CC[C@]4(C)[C@@]3(F)[C@@H](O)C[C@@]21C
inactive: dose: 100.0 mg/kg/injection, schedule: Q01DX Z (sc), vehicle: steriod suspending solution 98 % of control | dose: 200.0 mg/kg/injection, schedule: Q01DX Z (sc), vehicle: steriod suspending solution 98 % of control | dose: 400.0 mg/kg/injection, schedule: Q01DX Z (sc), vehicle: steriod suspending solution 100 % of control

CC(C)NCC1CCCO1 (configuration not stated)
inactive: [5] 94 % of control | [6] 94 % of control | [7] 97 % of control

O=C(CNC(=O)OCc1ccccc1)NC(Cc1ccccc1)C(=O)O (stereo not drawn) (Cbz-Gly-[ξF]-OH)
inactive: dose: 50.0 mg/kg/injection, schedule: Q01DX009 (ip), vehicle: Klucel (hydroxypropylcellulose) (HPC) 95 % of control | dose: 50.0 mg/kg/injection, schedule: Q04DX003 (ip), vehicle: Klucel (hydroxypropylcellulose) (HPC) 93 % of control | [8] 97 % of control | [9] 98 % of control | [10] 93 % of control | [11] 100 % of control

c1ccc2c(C3OCC4(CC4)CO3)cccc2c1
inactive: dose: 25.0 mg/kg/injection, schedule: Q01DX001 (ip), vehicle: Klucel (hydroxypropylcellulose) (HPC) 100 % of control | dose: 50.0 mg/kg/injection, schedule: Q01DX001 (ip), vehicle: Klucel (hydroxypropylcellulose) (HPC) 96 % of control | [15] 105 % of control

COc1ccccc1/C=C\C=O
inactive: dose: 100.0 mg/kg/injection, schedule: Q01DX001 (ip), vehicle: carboxymethylcellulose (CMC) 103 % of control | dose: 200.0 mg/kg/injection, schedule: Q01DX001 (ip), vehicle: carboxymethylcellulose (CMC) 100 % of control | dose: 400.0 mg/kg/injection, schedule: Q01DX001 (ip), vehicle: carboxymethylcellulose (CMC) 97 % of control

COC(=O)/C=C/Sc1ccccc1C(=O)OC
inactive: dose: 50.0 mg/kg/injection, schedule: Q04DX003 (ip), vehicle: other 104 % of control | dose: 100.0 mg/kg/injection, schedule: Q04DX003 (ip), vehicle: other 87 % of control | dose: 200.0 mg/kg/injection, schedule: Q04DX003 (ip), vehicle: other 95 % of control

C=C1C(=O)OC2C1CCC(=C)C1CC(O)C(=C)C12 (configuration not stated)
inactive: dose: 67.0 mg/kg/injection, schedule: Q01DX009 (ip), vehicle: saline with Tween-80 103 % of control | [1] 105 % of control

Nc1ccnc2cc(Cl)ccc12
inactive: dose: 75.0 mg/kg/injection, schedule: Q01DX001 (ip), vehicle: other 103 % of control | dose: 150.0 mg/kg/injection, schedule: Q01DX001 (ip), vehicle: other 100 % of control

O=C(O)CCCc1cc(O)c2c(c1O)C(=O)c1ccccc1C2=O
inactive: dose: 100.0 mg/kg/injection, schedule: Q01DX001 (ip), vehicle: saline sonified 98 % of control | dose: 200.0 mg/kg/injection, schedule: Q01DX001 (ip), vehicle: saline sonified 102 % of control | dose: 400.0 mg/kg/injection, schedule: Q01DX001 (ip), vehicle: saline sonified 118 % of control

O=C1NC(=O)C2=C1SCCS2
inactive: dose: 100.0 mg/kg/injection, schedule: Q04DX002 (ip), vehicle: saline with Tween-80 91 % of control | dose: 200.0 mg/kg/injection, schedule: Q04DX002 (ip), vehicle: saline with Tween-80 109 % of control | dose: 400.0 mg/kg/injection, schedule: Q04DX002 (ip), vehicle: saline with Tween-80 109 % of control

CCC(=O)c1c(C)[nH]c(C)c1C
inactive: [15] 96 % of control | dose: 200.0 mg/kg/injection, schedule: Q01DX001 (ip), vehicle: Klucel (hydroxypropylcellulose) (HPC) 95 % of control | dose: 400.0 mg/kg/injection, schedule: Q01DX001 (ip), vehicle: Klucel (hydroxypropylcellulose) (HPC) 96 % of control

C=C(Cl)CN1CCCC(=O)c2ccccc21
inactive: [13] 100 % of control | dose: 200.0 mg/kg/injection, schedule: Q01DX009 (ip), vehicle: saline 94 % of control | [14] 96 % of control

COC1=CC2C3=C(C(NC=O)CCc4cc(OC)c(OC)c(OC)c43)C2C1=O (configuration not stated)
inactive: [9] 95 % of control | [11] 100 % of control | [12] 102 % of control

CC1=C(C)C(=O)OC1=O
inactive: [9] 97 % of control | [11] 98 % of control
